Laboratory results reported in US9896435B2, “N-pyrrolidinyl,N′-pyrazolyl-urea, thiourea, guanidine and cyanoguanidine compounds as TrkA kinase inhibitors” (Array BioPharma Inc., priority 2012, dated 2018).

Experiments:
Assay in all cases: KinaseProfiler off-target kinase profiling
Type in all cases: biochemical
Details in all cases: 10 μM, ATP near Km
CDK7/cyclinH/MAT1 = CDK7/cyclinH/MAT1 (Homo sapiens (Human), UniProt P50613)
Method in brief: (§1)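 Compounds screened at 10 μM against a full kinase panel, ATP near each kinase's Km. Run in duplicate; values are percent of control (POC), mean of two replicates.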

DDR2 = DDR2 (Homo sapiens (Human), UniProt Q16832)
Method in brief: as §1

HIPK2 = HIPK2 (Homo sapiens (Human), UniProt Q9H2X6)
Method in brief: as §1

Plk3 = Plk3 (Homo sapiens (Human), UniProt Q9H4B4)
Method in brief: as §1

Syk = Syk (Homo sapiens (Human), UniProt P43405)
Method in brief: as §1

AKT1 = AKT1 (Homo sapiens (Human), UniProt P31749)
Method in brief: as §1

EphA7 = EphA7 (Homo sapiens (Human), UniProt Q15375)
Method in brief: as §1

CHK1 = CHK1 (Homo sapiens (Human), UniProt O14757)
Method in brief: as §1

EphA3 = EphA3 (Homo sapiens (Human), UniProt P29320)
Method in brief: as §1

SRC = SRC (Homo sapiens (Human), UniProt P12931)
Method in brief: as §1

DYRK2 = DYRK2 (Homo sapiens (Human), UniProt Q92630)
Method in brief: as §1

Pim-1 = Pim-1 (Homo sapiens (Human), UniProt P11309)
Method in brief: as §1

CHK2 = CHK2 (Homo sapiens (Human), UniProt O96017)
Method in brief: as §1

CK1delta = CK1delta (Homo sapiens (Human), UniProt P48730)
Method in brief: as §1

PKCbetaII = PKCbetaII (Homo sapiens (Human), UniProt P05771)
Method in brief: as §1

MYLK = MYLK (Homo sapiens (Human), UniProt Q15746)
Method in brief: as §1

ITK = ITK (Homo sapiens (Human), UniProt Q08881)
Method in brief: as §1

LOK = LOK (Homo sapiens (Human), UniProt O94804)
Method in brief: as §1

TEC Activated = TEC Activated (Homo sapiens (Human), UniProt P42680)
Method in brief: as §1

CDK3/cyclinE = CDK3/cyclinE (Homo sapiens (Human), UniProt Q00526)
Method in brief: as §1

PAK6 = PAK6 (Homo sapiens (Human), UniProt Q9NQU5)
Method in brief: as §1

PKCeta = PKCeta (Homo sapiens (Human), UniProt P24723)
Method in brief: as §1

Rse = Rse (Homo sapiens (Human), UniProt Q06418)
Method in brief: as §1

PASK = PASK (Homo sapiens (Human), UniProt Q96RG2)
Method in brief: as §1

Flt4 = Flt4 (Homo sapiens (Human), UniProt P35916)
Method in brief: as §1

TSSK1 = TSSK1 (Homo sapiens (Human), UniProt Q9BXA7)
Method in brief: as §1

IGF-1R = IGF-1R (Homo sapiens (Human), UniProt P08069)
Method in brief: as §1

ALK = ALK (Homo sapiens (Human), UniProt Q9UM73)
Method in brief: as §1

CAMK2d = CAMK2d (Homo sapiens (Human), UniProt Q13557)
Method in brief: as §1

Ret = Ret (Homo sapiens (Human), UniProt P07949)
Method in brief: as §1

NEK2 = NEK2 (Homo sapiens (Human), UniProt P51955)
Method in brief: as §1

MRCKbeta = MRCKbeta (Homo sapiens (Human), UniProt Q9Y5S2)
Method in brief: as §1

Fms = Fms (Homo sapiens (Human), UniProt P07333)
Method in brief: as §1

EphA5 = EphA5 (Homo sapiens (Human), UniProt P54756)
Method in brief: as §1

MAPKAP-K5 = MAPKAP-K5 (Homo sapiens (Human), UniProt Q8IW41)
Method in brief: as §1

ULK3 = ULK3 (Homo sapiens (Human), UniProt Q6PHR2)
Method in brief: as §1

Abl2 = Abl2 (Homo sapiens (Human), UniProt P42684)
Method in brief: as §1

CDK2/cyclinE = CDK2/cyclinE (Homo sapiens (Human), UniProt P24941)
Method in brief: as §1

DAPK1 = DAPK1 (Homo sapiens (Human), UniProt P53355)
Method in brief: as §1

STK33 = STK33 (Homo sapiens (Human), UniProt Q9BYT3)
Method in brief: as §1

Chain of ULK3 (Q6PHR2 whole entry): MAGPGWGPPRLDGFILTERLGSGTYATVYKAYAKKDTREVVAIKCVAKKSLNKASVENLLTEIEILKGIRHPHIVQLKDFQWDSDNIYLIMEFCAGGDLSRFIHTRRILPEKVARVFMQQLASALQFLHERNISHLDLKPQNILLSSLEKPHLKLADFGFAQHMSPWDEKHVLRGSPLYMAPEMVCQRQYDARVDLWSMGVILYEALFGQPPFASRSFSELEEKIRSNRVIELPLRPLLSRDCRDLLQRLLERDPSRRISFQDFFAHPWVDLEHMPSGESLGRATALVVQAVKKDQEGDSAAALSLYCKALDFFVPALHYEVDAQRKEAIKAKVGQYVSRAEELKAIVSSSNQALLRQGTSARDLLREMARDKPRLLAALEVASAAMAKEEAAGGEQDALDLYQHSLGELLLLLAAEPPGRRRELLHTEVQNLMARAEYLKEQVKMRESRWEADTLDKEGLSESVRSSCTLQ
Chain of SRC (P12931 whole entry, looked up): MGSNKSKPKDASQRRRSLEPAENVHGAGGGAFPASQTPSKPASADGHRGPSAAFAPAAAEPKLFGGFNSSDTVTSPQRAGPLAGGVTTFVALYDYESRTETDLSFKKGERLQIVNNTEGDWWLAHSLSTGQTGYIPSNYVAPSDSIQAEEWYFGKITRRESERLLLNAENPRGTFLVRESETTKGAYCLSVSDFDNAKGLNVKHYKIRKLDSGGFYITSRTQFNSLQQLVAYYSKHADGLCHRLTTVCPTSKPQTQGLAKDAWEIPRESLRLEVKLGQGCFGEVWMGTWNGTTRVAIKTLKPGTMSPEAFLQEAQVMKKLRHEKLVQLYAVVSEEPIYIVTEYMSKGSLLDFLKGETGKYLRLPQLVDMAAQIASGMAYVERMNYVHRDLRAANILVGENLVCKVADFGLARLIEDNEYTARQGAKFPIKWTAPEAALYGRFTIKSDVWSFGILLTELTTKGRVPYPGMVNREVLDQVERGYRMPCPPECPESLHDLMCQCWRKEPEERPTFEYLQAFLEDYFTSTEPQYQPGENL
Chain of CDK7/cyclinH/MAT1 (P50613 whole entry): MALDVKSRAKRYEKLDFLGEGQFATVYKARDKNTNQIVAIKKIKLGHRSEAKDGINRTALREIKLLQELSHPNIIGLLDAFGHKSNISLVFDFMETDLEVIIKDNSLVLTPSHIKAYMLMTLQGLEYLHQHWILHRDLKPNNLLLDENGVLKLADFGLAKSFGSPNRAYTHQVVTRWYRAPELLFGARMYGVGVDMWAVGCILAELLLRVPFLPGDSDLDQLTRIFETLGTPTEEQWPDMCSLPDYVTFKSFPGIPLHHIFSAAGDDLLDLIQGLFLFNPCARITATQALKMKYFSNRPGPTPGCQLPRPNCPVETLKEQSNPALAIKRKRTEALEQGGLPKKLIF
Chain of CDK7/cyclinH/MAT1 (P51946 whole entry partner): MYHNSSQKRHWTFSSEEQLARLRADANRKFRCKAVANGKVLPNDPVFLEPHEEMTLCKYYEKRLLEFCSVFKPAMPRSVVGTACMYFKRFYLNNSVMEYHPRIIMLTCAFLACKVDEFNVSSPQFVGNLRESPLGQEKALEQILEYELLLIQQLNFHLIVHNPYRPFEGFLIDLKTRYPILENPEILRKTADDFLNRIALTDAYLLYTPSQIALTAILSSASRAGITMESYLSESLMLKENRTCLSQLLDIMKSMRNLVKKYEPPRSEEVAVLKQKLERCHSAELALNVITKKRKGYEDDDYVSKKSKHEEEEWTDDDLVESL
Chain of CDK7/cyclinH/MAT1 (P51948 whole entry partner): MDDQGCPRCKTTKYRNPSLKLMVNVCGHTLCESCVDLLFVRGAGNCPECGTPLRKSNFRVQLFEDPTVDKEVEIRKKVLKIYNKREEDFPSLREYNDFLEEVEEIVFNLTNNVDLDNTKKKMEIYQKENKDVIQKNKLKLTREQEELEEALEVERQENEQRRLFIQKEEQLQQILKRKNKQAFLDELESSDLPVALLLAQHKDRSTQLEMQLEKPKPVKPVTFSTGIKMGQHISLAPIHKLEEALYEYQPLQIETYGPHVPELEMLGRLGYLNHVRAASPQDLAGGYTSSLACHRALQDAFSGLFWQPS
Chain of AKT1 (P31749 whole entry): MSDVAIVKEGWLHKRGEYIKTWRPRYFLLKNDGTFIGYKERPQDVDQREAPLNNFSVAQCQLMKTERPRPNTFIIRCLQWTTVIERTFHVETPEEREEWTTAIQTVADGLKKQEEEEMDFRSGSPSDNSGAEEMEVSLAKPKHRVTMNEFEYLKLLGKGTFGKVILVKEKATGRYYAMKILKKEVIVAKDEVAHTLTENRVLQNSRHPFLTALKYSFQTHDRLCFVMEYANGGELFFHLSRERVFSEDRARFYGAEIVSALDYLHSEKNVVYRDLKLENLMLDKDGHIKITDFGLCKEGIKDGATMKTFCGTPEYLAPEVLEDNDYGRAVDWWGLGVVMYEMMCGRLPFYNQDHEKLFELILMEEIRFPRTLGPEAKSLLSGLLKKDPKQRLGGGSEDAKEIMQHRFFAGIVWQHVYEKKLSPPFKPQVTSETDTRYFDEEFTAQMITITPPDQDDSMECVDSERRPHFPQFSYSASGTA
Chain of TSSK1 (Q9BXA7 whole entry): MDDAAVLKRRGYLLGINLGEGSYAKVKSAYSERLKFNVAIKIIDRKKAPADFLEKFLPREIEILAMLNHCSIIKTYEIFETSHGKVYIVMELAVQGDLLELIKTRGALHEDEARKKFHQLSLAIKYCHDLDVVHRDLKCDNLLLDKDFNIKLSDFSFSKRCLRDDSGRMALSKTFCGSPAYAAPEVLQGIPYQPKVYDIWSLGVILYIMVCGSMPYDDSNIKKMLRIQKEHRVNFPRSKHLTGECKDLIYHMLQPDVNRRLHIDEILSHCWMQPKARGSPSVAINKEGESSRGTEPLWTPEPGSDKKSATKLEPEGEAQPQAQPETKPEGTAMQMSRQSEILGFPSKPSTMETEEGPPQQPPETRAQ
Chain of Flt4 (P35916 25-1363): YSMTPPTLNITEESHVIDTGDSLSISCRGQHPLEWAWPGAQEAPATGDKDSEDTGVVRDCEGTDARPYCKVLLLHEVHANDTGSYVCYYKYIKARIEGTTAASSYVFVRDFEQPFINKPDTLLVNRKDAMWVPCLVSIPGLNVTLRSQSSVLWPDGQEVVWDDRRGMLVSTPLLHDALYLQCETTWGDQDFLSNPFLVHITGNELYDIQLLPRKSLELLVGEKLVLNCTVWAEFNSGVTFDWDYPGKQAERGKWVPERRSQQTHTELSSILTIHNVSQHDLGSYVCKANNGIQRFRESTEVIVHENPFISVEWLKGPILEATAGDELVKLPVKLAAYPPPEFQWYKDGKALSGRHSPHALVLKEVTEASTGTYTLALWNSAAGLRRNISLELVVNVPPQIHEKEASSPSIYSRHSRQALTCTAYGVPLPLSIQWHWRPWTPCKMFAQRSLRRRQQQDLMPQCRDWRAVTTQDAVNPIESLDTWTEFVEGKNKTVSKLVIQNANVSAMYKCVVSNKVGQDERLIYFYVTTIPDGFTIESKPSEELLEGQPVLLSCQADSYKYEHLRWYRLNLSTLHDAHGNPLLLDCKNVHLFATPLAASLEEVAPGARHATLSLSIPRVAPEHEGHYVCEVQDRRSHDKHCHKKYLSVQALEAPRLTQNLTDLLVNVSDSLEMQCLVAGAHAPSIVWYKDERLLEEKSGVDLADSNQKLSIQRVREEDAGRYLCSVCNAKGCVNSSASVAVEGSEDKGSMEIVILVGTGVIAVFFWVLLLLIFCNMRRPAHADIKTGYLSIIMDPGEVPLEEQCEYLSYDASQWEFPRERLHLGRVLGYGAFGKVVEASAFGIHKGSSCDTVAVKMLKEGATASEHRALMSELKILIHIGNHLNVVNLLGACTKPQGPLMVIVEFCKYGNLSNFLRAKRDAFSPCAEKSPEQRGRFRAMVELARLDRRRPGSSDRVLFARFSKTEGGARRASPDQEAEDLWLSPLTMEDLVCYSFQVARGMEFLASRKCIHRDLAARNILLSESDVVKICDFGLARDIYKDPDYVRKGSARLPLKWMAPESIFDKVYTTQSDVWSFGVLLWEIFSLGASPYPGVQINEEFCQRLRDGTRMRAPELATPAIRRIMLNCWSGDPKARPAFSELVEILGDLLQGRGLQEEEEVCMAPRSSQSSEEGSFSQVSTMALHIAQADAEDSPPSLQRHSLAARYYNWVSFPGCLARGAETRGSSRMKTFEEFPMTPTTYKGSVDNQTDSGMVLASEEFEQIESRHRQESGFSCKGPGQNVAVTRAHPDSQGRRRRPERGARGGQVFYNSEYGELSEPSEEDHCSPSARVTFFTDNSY
Chain of NEK2 (P51955 whole entry): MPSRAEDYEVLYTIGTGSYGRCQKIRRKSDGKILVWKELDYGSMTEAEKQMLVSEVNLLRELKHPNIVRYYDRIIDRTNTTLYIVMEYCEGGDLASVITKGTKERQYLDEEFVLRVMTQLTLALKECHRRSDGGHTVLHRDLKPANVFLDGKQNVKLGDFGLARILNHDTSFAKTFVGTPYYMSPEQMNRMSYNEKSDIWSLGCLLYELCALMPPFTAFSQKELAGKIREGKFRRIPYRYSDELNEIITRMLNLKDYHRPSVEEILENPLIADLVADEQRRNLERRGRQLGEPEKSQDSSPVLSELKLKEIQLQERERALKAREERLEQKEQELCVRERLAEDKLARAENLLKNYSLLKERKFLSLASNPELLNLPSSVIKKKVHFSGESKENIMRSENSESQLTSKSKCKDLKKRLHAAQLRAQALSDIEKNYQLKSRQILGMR
Chain of Pim-1 (P11309 whole entry): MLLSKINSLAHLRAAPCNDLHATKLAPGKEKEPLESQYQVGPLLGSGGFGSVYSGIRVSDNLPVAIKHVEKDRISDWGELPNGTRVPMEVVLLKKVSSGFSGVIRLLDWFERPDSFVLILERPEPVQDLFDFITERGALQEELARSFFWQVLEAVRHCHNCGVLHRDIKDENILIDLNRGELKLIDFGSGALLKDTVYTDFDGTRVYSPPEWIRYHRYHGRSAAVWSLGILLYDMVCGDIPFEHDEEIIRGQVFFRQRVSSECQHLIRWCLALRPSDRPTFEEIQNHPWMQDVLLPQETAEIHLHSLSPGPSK

Avg POC (CDK7/cyclinH/MAT1)	Avg POC (DDR2)	Avg POC (HIPK2)	Avg POC (Plk3)	Avg POC (Syk)	Avg POC (AKT1)	Avg POC (EphA7)	Avg POC (CHK1)	Avg POC (EphA3)	Avg POC (SRC)	Avg POC (DYRK2)	Avg POC (Pim-1)	Avg POC (CHK2)	Avg POC (CK1delta)	Avg POC (PKCbetaII)	Avg POC (MYLK)	Avg POC (ITK)	Avg POC (LOK)	Avg POC (TEC Activated)	Avg POC (CDK3/cyclinE)	SMILES	further results
88 POC	100.5 POC	95 POC	101 POC	86 POC	109.5 POC	101.5 POC	114.5 POC	101.5 POC	105 POC	90.5 POC	99.5 POC	101 POC	108 POC	101.5 POC	86.5 POC	111 POC	109 POC	107 POC	98 POC	COCCN1C[C@@H](NC(=O)Nc2c(C)c(-c3ccnc(C)c3)nn2-c2ccccc2)[C@H](c2ccc(F)c(F)c2)C1 [Example 2, 1-((3S,4R)-4-(3,4-difluorophenyl)-1-(2-methoxyethyl)pyrrolidin-3-yl)-3-(4-methyl-3-(2-methylpyridin-4-yl)-1-phenyl-1H-pyrazol-5-yl)urea]	Avg POC (PAK6): 106 POC; Avg POC (PKCeta): 108.5 POC; Avg POC (Rse): 96 POC; Avg POC (PASK): 102.5 POC; Avg POC (Flt4): 95 POC; Avg POC (TSSK1): 105 POC; Avg POC (IGF-1R): 63 POC; Avg POC (ALK): 111 POC; Avg POC (CAMK2d): 91.5 POC; Avg POC (Ret): 106.5 POC; Avg POC (NEK2): 96 POC; Avg POC (MRCKbeta): 105 POC; Avg POC (Fms): 101.5 POC; Avg POC (EphA5): 102.5 POC; Avg POC (MAPKAP-K5): 100 POC; Avg POC (ULK3): 100 POC; Avg POC (Abl2): 101 POC; Avg POC (CDK2/cyclinE): 103 POC; Avg POC (DAPK1): 97 POC; Avg POC (STK33): 94 POC
97.5 POC	96 POC	99 POC	93.5 POC	88 POC	98.5 POC	106.5 POC	104.5 POC	106.5 POC	103.5 POC	85 POC	103.5 POC	97.5 POC	108.5 POC	92 POC	101.5 POC	101 POC	105 POC	83.5 POC	100.5 POC	COCCN1C[C@@H](NC(=O)Nc2c(C)c(-c3cnc(C)nc3)nn2-c2ccccc2)[C@H](c2cc(F)cc(F)c2)C1 [Example 14, 1-((3S,4R)-4-(3,5-difluorophenyl)-1-(2-methoxyethyl)pyrrolidin-3-yl)-3-(4-methyl-3-(2-methylpyrimidin-5-yl)-1-phenyl-1H-pyrazol-5-yl)urea]	Avg POC (PAK6): 102 POC; Avg POC (PKCeta): 100 POC; Avg POC (Rse): 96.5 POC; Avg POC (PASK): 100.5 POC; Avg POC (Flt4): 92.5 POC; Avg POC (TSSK1): 104.5 POC; Avg POC (IGF-1R): 79 POC; Avg POC (ALK): 102.5 POC; Avg POC (CAMK2d): 105.5 POC; Avg POC (Ret): 84 POC; Avg POC (NEK2): 97.5 POC; Avg POC (MRCKbeta): 98.5 POC; Avg POC (Fms): 76 POC; Avg POC (EphA5): 101.5 POC; Avg POC (MAPKAP-K5): 123.5 POC; Avg POC (ULK3): 98 POC; Avg POC (Abl2): 95.5 POC; Avg POC (CDK2/cyclinE): 98.5 POC; Avg POC (DAPK1): 99.5 POC; Avg POC (STK33): 103.5 POC
